{"source": "patent US20230017045A1", "about": "“PYRIDINE AND PYRIMIDINE CARBOXYLATE HERBICIDES AND METHODS OF USE THEREOF” (Dow AgroSciences LLC, priority 2017, published 2023)"}
{"system": "test plant species", "assay": "Post-emergent herbicidal activity test (greenhouse, foliar spray, visual growth reduction)", "format": "in vivo", "settings": "post-emergence, 336 h, ALOMY: blackgrass (Alopecurus myosuroides), 140 g ai/ha, 14 days after application, read-out: Visual Growth Reduction (%) 14 Days After Application, ALOMY", "outline": "(§1)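 Greenhouse plants at first–second true leaf stage sprayed overhead at 187 L/ha with compound in acetone/water/isopropanol/DMSO/crop oil/X-77 carrier; controls received solvent blank. Injury rated visually after 14 d on a 0–100% scale versus untreated and control plants, converted to growth reduction.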", "units": {"pest or weed control at 140 g/ha": "%"}}
{"smiles": "O=C(O)c1nc(-c2cc3c(cc2Cl)OC(F)(F)O3)c(F)cc1Cl", "note": "[F175, 3-Chloro-6-(6-chloro-2,2-difluorobenzo[d] [1,3]dioxol-5-yl)-5-fluoropicolinic acid]", "pest or weed control at 140 g/ha": "60 to 74"}
{"smiles": "COC(=O)c1cc(Cl)cc(-c2ccc(C(F)(F)F)cc2Cl)n1", "note": "[F57, Methyl 4-chloro-6-(2-chloro-4-(trifluoromethyl)phenyl)picolinate]", "pest or weed control at 140 g/ha": "0 to 29"}
{"system": "test plant species", "assay": "Post-emergent herbicidal activity test (greenhouse, foliar spray, visual growth reduction)", "format": "in vivo", "settings": "post-emergence, 336 h, AMARE: redroot pigweed (Amaranthus retroflexus), 140 g ai/ha, 14 days after application, read-out: Visual Growth Reduction (%) 14 Days After Application, AMARE", "outline": "as §1", "units": {"pest or weed control at 140 g/ha": "%"}}
{"smiles": "O=C(O)c1nc(-c2cc3c(cc2Cl)OC(F)(F)O3)c(F)cc1Cl", "note": "[F175, 3-Chloro-6-(6-chloro-2,2-difluorobenzo[d] [1,3]dioxol-5-yl)-5-fluoropicolinic acid]", "pest or weed control at 140 g/ha": "95 to 100"}
{"smiles": "COC(=O)c1cc(Cl)cc(-c2ccc(C(F)(F)F)cc2Cl)n1", "note": "[F57, Methyl 4-chloro-6-(2-chloro-4-(trifluoromethyl)phenyl)picolinate]", "pest or weed control at 140 g/ha": "0 to 29"}
{"system": "test plant species", "assay": "Post-emergent herbicidal activity test (greenhouse, foliar spray, visual growth reduction)", "format": "in vivo", "settings": "post-emergence, 336 h, AVEFA: wild oat (Avena fatua), 140 g ai/ha, 14 days after application, read-out: Visual Growth Reduction (%) 14 Days After Application, AVEFA", "outline": "as §1", "units": {"pest or weed control at 140 g/ha": "%"}}
{"smiles": "O=C(O)c1nc(-c2cc3c(cc2Cl)OC(F)(F)O3)c(F)cc1Cl", "note": "[F175, 3-Chloro-6-(6-chloro-2,2-difluorobenzo[d] [1,3]dioxol-5-yl)-5-fluoropicolinic acid]", "pest or weed control at 140 g/ha": "60 to 74"}
{"smiles": "COC(=O)c1cc(Cl)cc(-c2ccc(C(F)(F)F)cc2Cl)n1", "note": "[F57, Methyl 4-chloro-6-(2-chloro-4-(trifluoromethyl)phenyl)picolinate]", "pest or weed control at 140 g/ha": "0 to 29"}
{"system": "test plant species", "assay": "Post-emergent herbicidal activity test (greenhouse, foliar spray, visual growth reduction)", "format": "in vivo", "settings": "post-emergence, 336 h, CHEAL: lambsquarters (Chenopodium album), 140 g ai/ha, 14 days after application, read-out: Visual Growth Reduction (%) 14 Days After Application, CHEAL", "outline": "as §1", "units": {"pest or weed control at 140 g/ha": "%"}}
{"smiles": "O=C(O)c1nc(-c2cc3c(cc2Cl)OC(F)(F)O3)c(F)cc1Cl", "note": "[F175, 3-Chloro-6-(6-chloro-2,2-difluorobenzo[d] [1,3]dioxol-5-yl)-5-fluoropicolinic acid]", "pest or weed control at 140 g/ha": "95 to 100"}
{"smiles": "COC(=O)c1cc(Cl)cc(-c2ccc(C(F)(F)F)cc2Cl)n1", "note": "[F57, Methyl 4-chloro-6-(2-chloro-4-(trifluoromethyl)phenyl)picolinate]", "pest or weed control at 140 g/ha": "0 to 29"}
{"system": "test plant species", "assay": "Post-emergent herbicidal activity test (greenhouse, foliar spray, visual growth reduction)", "format": "in vivo", "settings": "post-emergence, 336 h, CIRAR: canada thistle (Cirsium arvense), 140 g ai/ha, 14 days after application, read-out: Visual Growth Reduction (%) 14 Days After Application, CIRAR", "outline": "as §1", "units": {"pest or weed control at 140 g/ha": "%"}}
{"smiles": "O=C(O)c1nc(-c2cc3c(cc2Cl)OC(F)(F)O3)c(F)cc1Cl", "note": "[F175, 3-Chloro-6-(6-chloro-2,2-difluorobenzo[d] [1,3]dioxol-5-yl)-5-fluoropicolinic acid]", "pest or weed control at 140 g/ha": "85 to 94"}
{"smiles": "COC(=O)c1cc(Cl)cc(-c2ccc(C(F)(F)F)cc2Cl)n1", "note": "[F57, Methyl 4-chloro-6-(2-chloro-4-(trifluoromethyl)phenyl)picolinate]", "pest or weed control at 140 g/ha": "0 to 29"}
{"system": "test plant species", "assay": "Post-emergent herbicidal activity test (greenhouse, foliar spray, visual growth reduction)", "format": "in vivo", "settings": "post-emergence, 336 h, CYPES: yellow nutsedge (Cyperus esculentus), 140 g ai/ha, 14 days after application, read-out: Visual Growth Reduction (%) 14 Days After Application, CYPES", "outline": "as §1", "units": {"pest or weed control at 140 g/ha": "%"}}
{"smiles": "O=C(O)c1nc(-c2cc3c(cc2Cl)OC(F)(F)O3)c(F)cc1Cl", "note": "[F175, 3-Chloro-6-(6-chloro-2,2-difluorobenzo[d] [1,3]dioxol-5-yl)-5-fluoropicolinic acid]", "pest or weed control at 140 g/ha": "0 to 29"}
{"smiles": "COC(=O)c1cc(Cl)cc(-c2ccc(C(F)(F)F)cc2Cl)n1", "note": "[F57, Methyl 4-chloro-6-(2-chloro-4-(trifluoromethyl)phenyl)picolinate]", "pest or weed control at 140 g/ha": "0 to 29"}
{"system": "test plant species", "assay": "Post-emergent herbicidal activity test (greenhouse, foliar spray, visual growth reduction)", "format": "in vivo", "settings": "post-emergence, 336 h, DIGSA: crabgrass (Digitaria sanguinalis), 140 g ai/ha, 14 days after application, read-out: Visual Growth Reduction (%) 14 Days After Application, DIGSA", "outline": "as §1", "units": {"pest or weed control at 140 g/ha": "%"}}
{"smiles": "O=C(O)c1nc(-c2cc3c(cc2Cl)OC(F)(F)O3)c(F)cc1Cl", "note": "[F175, 3-Chloro-6-(6-chloro-2,2-difluorobenzo[d] [1,3]dioxol-5-yl)-5-fluoropicolinic acid]", "pest or weed control at 140 g/ha": "95 to 100"}
{"smiles": "COC(=O)c1cc(Cl)cc(-c2ccc(C(F)(F)F)cc2Cl)n1", "note": "[F57, Methyl 4-chloro-6-(2-chloro-4-(trifluoromethyl)phenyl)picolinate]", "pest or weed control at 140 g/ha": "0 to 29"}
{"system": "test plant species", "assay": "Post-emergent herbicidal activity test (greenhouse, foliar spray, visual growth reduction)", "format": "in vivo", "settings": "post-emergence, 336 h, ECHCG: barnyardgrass (Echinochloa crus-galli), 140 g ai/ha, 14 days after application, read-out: Visual Growth Reduction (%) 14 Days After Application, ECHCG", "outline": "as §1", "units": {"pest or weed control at 140 g/ha": "%"}}
{"smiles": "O=C(O)c1nc(-c2cc3c(cc2Cl)OC(F)(F)O3)c(F)cc1Cl", "note": "[F175, 3-Chloro-6-(6-chloro-2,2-difluorobenzo[d] [1,3]dioxol-5-yl)-5-fluoropicolinic acid]", "pest or weed control at 140 g/ha": "85 to 94"}
{"smiles": "COC(=O)c1cc(Cl)cc(-c2ccc(C(F)(F)F)cc2Cl)n1", "note": "[F57, Methyl 4-chloro-6-(2-chloro-4-(trifluoromethyl)phenyl)picolinate]", "pest or weed control at 140 g/ha": "0 to 29"}
{"system": "test plant species", "assay": "Post-emergent herbicidal activity test (greenhouse, foliar spray, visual growth reduction)", "format": "in vivo", "settings": "post-emergence, 336 h, IPOHE: ivy-leaf morning glory (Ipomoea hederacea), 140 g ai/ha, 14 days after application, read-out: Visual Growth Reduction (%) 14 Days After Application, IPOHE", "outline": "as §1", "units": {"pest or weed control at 140 g/ha": "%"}}
{"smiles": "O=C(O)c1nc(-c2cc3c(cc2Cl)OC(F)(F)O3)c(F)cc1Cl", "note": "[F175, 3-Chloro-6-(6-chloro-2,2-difluorobenzo[d] [1,3]dioxol-5-yl)-5-fluoropicolinic acid]", "pest or weed control at 140 g/ha": "95 to 100"}
{"smiles": "COC(=O)c1cc(Cl)cc(-c2ccc(C(F)(F)F)cc2Cl)n1", "note": "[F57, Methyl 4-chloro-6-(2-chloro-4-(trifluoromethyl)phenyl)picolinate]", "pest or weed control at 140 g/ha": "0 to 29"}
{"system": "test plant species", "assay": "Post-emergent herbicidal activity test (greenhouse, foliar spray, visual growth reduction)", "format": "in vivo", "settings": "post-emergence, 336 h, KCHSC: kochia (Bassia scoparia), 140 g ai/ha, 14 days after application, read-out: Visual Growth Reduction (%) 14 Days After Application, KCHSC", "outline": "as §1", "units": {"pest or weed control at 140 g/ha": "%"}}
{"smiles": "O=C(O)c1nc(-c2cc3c(cc2Cl)OC(F)(F)O3)c(F)cc1Cl", "note": "[F175, 3-Chloro-6-(6-chloro-2,2-difluorobenzo[d] [1,3]dioxol-5-yl)-5-fluoropicolinic acid]", "pest or weed control at 140 g/ha": "85 to 94"}
{"smiles": "COC(=O)c1cc(Cl)cc(-c2ccc(C(F)(F)F)cc2Cl)n1", "note": "[F57, Methyl 4-chloro-6-(2-chloro-4-(trifluoromethyl)phenyl)picolinate]", "pest or weed control at 140 g/ha": "0 to 29"}
{"system": "test plant species", "assay": "Post-emergent herbicidal activity test (greenhouse, foliar spray, visual growth reduction)", "format": "in vivo", "settings": "post-emergence, 336 h, ORYSA: rice (Oryza sativa), 140 g ai/ha, 14 days after application, read-out: Visual Growth Reduction (%) 14 Days After Application, ORYSA", "outline": "as §1", "units": {"pest or weed control at 140 g/ha": "%"}}
{"smiles": "O=C(O)c1nc(-c2cc3c(cc2Cl)OC(F)(F)O3)c(F)cc1Cl", "note": "[F175, 3-Chloro-6-(6-chloro-2,2-difluorobenzo[d] [1,3]dioxol-5-yl)-5-fluoropicolinic acid]", "pest or weed control at 140 g/ha": "45 to 59"}
{"smiles": "COC(=O)c1cc(Cl)cc(-c2ccc(C(F)(F)F)cc2Cl)n1", "note": "[F57, Methyl 4-chloro-6-(2-chloro-4-(trifluoromethyl)phenyl)picolinate]", "pest or weed control at 140 g/ha": "0 to 29"}
{"system": "test plant species", "assay": "Post-emergent herbicidal activity test (greenhouse, foliar spray, visual growth reduction)", "format": "in vivo", "settings": "post-emergence, 336 h, SETFA: giant foxtail (Setaria faberi), 140 g ai/ha, 14 days after application, read-out: Visual Growth Reduction (%) 14 Days After Application, SETFA", "outline": "as §1", "units": {"pest or weed control at 140 g/ha": "%"}}
{"smiles": "O=C(O)c1nc(-c2cc3c(cc2Cl)OC(F)(F)O3)c(F)cc1Cl", "note": "[F175, 3-Chloro-6-(6-chloro-2,2-difluorobenzo[d] [1,3]dioxol-5-yl)-5-fluoropicolinic acid]", "pest or weed control at 140 g/ha": "85 to 94"}
{"smiles": "COC(=O)c1cc(Cl)cc(-c2ccc(C(F)(F)F)cc2Cl)n1", "note": "[F57, Methyl 4-chloro-6-(2-chloro-4-(trifluoromethyl)phenyl)picolinate]", "pest or weed control at 140 g/ha": "0 to 29"}
{"system": "test plant species", "assay": "Post-emergent herbicidal activity test (greenhouse, foliar spray, visual growth reduction)", "format": "in vivo", "settings": "post-emergence, 336 h, SORVU: grain sorghum (Sorghum vulgare), 140 g ai/ha, 14 days after application, read-out: Visual Growth Reduction (%) 14 Days After Application, SORVU", "outline": "as §1", "units": {"pest or weed control at 140 g/ha": "%"}}
{"smiles": "O=C(O)c1nc(-c2cc3c(cc2Cl)OC(F)(F)O3)c(F)cc1Cl", "note": "[F175, 3-Chloro-6-(6-chloro-2,2-difluorobenzo[d] [1,3]dioxol-5-yl)-5-fluoropicolinic acid]", "pest or weed control at 140 g/ha": "95 to 100"}
{"smiles": "COC(=O)c1cc(Cl)cc(-c2ccc(C(F)(F)F)cc2Cl)n1", "note": "[F57, Methyl 4-chloro-6-(2-chloro-4-(trifluoromethyl)phenyl)picolinate]", "pest or weed control at 140 g/ha": "0 to 29"}
{"system": "test plant species", "assay": "Post-emergent herbicidal activity test (greenhouse, foliar spray, visual growth reduction)", "format": "in vivo", "settings": "post-emergence, 336 h, STEME: common chickweed (Stellaria media), 140 g ai/ha, 14 days after application, read-out: Visual Growth Reduction (%) 14 Days After Application, STEME", "outline": "as §1", "units": {"pest or weed control at 140 g/ha": "%"}}
{"smiles": "O=C(O)c1nc(-c2cc3c(cc2Cl)OC(F)(F)O3)c(F)cc1Cl", "note": "[F175, 3-Chloro-6-(6-chloro-2,2-difluorobenzo[d] [1,3]dioxol-5-yl)-5-fluoropicolinic acid]", "pest or weed control at 140 g/ha": "0 to 29"}
{"smiles": "COC(=O)c1cc(Cl)cc(-c2ccc(C(F)(F)F)cc2Cl)n1", "note": "[F57, Methyl 4-chloro-6-(2-chloro-4-(trifluoromethyl)phenyl)picolinate]", "pest or weed control at 140 g/ha": "0 to 29"}
{"system": "test plant species", "assay": "Post-emergent herbicidal activity test (greenhouse, foliar spray, visual growth reduction)", "format": "in vivo", "settings": "post-emergence, 336 h, TRZAS: wheat, spring (Triticum aestivum), 140 g ai/ha, 14 days after application, read-out: Visual Growth Reduction (%) 14 Days After Application, TRZAS", "outline": "as §1", "units": {"pest or weed control at 140 g/ha": "%"}}
{"smiles": "O=C(O)c1nc(-c2cc3c(cc2Cl)OC(F)(F)O3)c(F)cc1Cl", "note": "[F175, 3-Chloro-6-(6-chloro-2,2-difluorobenzo[d] [1,3]dioxol-5-yl)-5-fluoropicolinic acid]", "pest or weed control at 140 g/ha": "85 to 94"}
{"smiles": "COC(=O)c1cc(Cl)cc(-c2ccc(C(F)(F)F)cc2Cl)n1", "note": "[F57, Methyl 4-chloro-6-(2-chloro-4-(trifluoromethyl)phenyl)picolinate]", "pest or weed control at 140 g/ha": "0 to 29"}
